Publication PMC8198792, “Prediction of Anticancer Peptides with High Efficacy and Low Toxicity by Hybrid Model Based on 3D Structure of Peptides” (International Journal of Molecular Sciences, 2021)
Read-outs that look alike come from different tables or passages of the source. Bridge positions count the residues as written; N and C are the ends. Peptide text beside a SMILES is read from it.

Key:
[1] = tested on: colorectal adenocarcinoma cell line (LoVo); type: cell-based, human; details: 24 h
Source text: (§1) Five peptides were randomly selected from the candidate ACPs and synthesized by Changzhou Kanglong Biotech Ltd (Changzhou, China). using 9-fuorenylmethoxy carbonyl (FMOC) solid phase synthesis technology. The synthetic peptide was identified by mass spectrometry (MS), and the purity >95% by high performance liquid chromatography (HPLC). Human breast cancer cell line (MCF7), lung cancer cell line (A549), cervical cancer cell line (HeLa), colorectal adenocarcinoma cell line (LoVo) and human embryonic kidney cells (293T) were preserved in our laboratory. At 37 °C under 5/95% CO2/air condition, all cell lines were cultured in Dulbecco’s modified Eagle medium (DMEM) supplemented with 10% (v/v) fetal bovine serum (FBS, Gibco, Carlsbad, CA, USA) and 1% (v/v) penicillin/streptomycin (Sangon Biotech, Shanghai, China).
(§2) Human tumor cell lines MCF7, A549, HeLa and LoVo were used as experimental materials to detect the anticancer activity of peptides by MTT assay. In addition, human embryonic kidney cells 293T were also included in the experiment to examine the safety of the peptide against non-cancerous cells. […] Untreated cells as negative control group incubated with corresponding medium for 24 h. Subsequently, 10 uL, 5 mg/mL MTT (Sangon Biotech, Shanghai, China) solution was added to each well and incubated for 4 h at 37 °C. After the medium was discarded, 150 μL DMSO was added to each well for 10 min to dissolve formazan crystals. Absorbance was measured at 570 and 630 nm using a multiwall plate reader and the inhibition rate was expressed as the mean ± standard deviation (SD) of the triplicate data.

[2] = tested on: lung cancer cell line (A549); type: cell-based, human; details: for IC50 / killing effects on lung cancer cell A549 (in words): 24 h; for selective killing effect on lung cancer A549 cells relative to 293T cells (in words): A549 versus 293T, MTT IC50; for killing effects on lung cancer cell A549 (in words): MTT, anticancer activity when IC50 less than 50 μM
Source text: as §1, §2

[3] = tested on: cervical cancer cell line (HeLa); type: cell-based, human; details: 24 h
Source text: as §1, §2

[4] = tested on: Human breast cancer cell line (MCF7); type: cell-based; details: 24 h
Source text: as §1, §2

[5] = tested on: human embryonic kidney cells (293T); experiment: MTT assay on non-cancerous cells, 293T; type: cell-based; details: 24 h; for toxicity to 293T cells (in words): low toxicity when the IC50 value exceeded 50 μM, MTT
Source text: as §1, §2

erythrocytes = details: cited from earlier work
Source text: Supplement ijms-22-05630-s001.zip/Hemloytic Peptides(seguence).xlsx, sheet "HD1" | column: Activity || Supplement ijms-22-05630-s001.zip/Hemloytic Peptides(seguence).xlsx, sheet "HD2" | column: Activity || Supplement ijms-22-05630-s001.zip/Hemloytic Peptides(seguence).xlsx, sheet "HD3" | column: Activity

cancer cell lines = tested on: cancer cell lines; parameters: method as in 6 sources, ref CancerPPD [45] and SATPdb ||| ref CancerPPD/SATPdb ||| ref CancerPPD, SATPdb, Swissprot (PDB) ||| ref CancerPPD/SATPdb/Swissprot(PDB) ||| ref CancerPPD / SATPdb ||| ...; details: cited from earlier work
Source text: Supplement ijms-22-05630-s001.zip/ACPs(seguence).xlsx, sheet "D1" | column: Activity || Supplement ijms-22-05630-s001.zip/ACPs(seguence).xlsx, sheet "D2" | column: Activity || Supplement ijms-22-05630-s001.zip/ACPs(seguence).xlsx, sheet "D3" | column: Activity || (+ 2 further places)

[6] = tested on: many types of cells, including non-cancer cells; details: toxic peptides dataset TD2; class label 1 (toxic, positive set) or 0 (non-toxic AMP, negative set); ref SATPdb; cited from earlier work
[7] = tested on: 2% sheep red blood cells (SRBC); experiment: Hemolysis assay; type: cell-based; details: Triton X-100 0.1% (w/v), 2% SRBC, 37 °C, 1 h, absorbance 540 nm; printed once per peptide line
Experimental: The 2% sheep red blood cells (SRBC) were purchased from Nanjing Senbeijia Biological Technology Co., Ltd (Nangjing, China). A total of 4 mL of 2% SRBC was taken, rinsed twice with 4 mL of PBS by centrifugation for 5 min at 3000 rpm and the precipitates were resuspended in 4 mL of PBS. We added 100 μL of 2% SRBC to each well of the 96-well plate and then added 100 μL peptide solutions of different concentrations (2, 4, 8, 16, 32, 64, 128 and 256 μM) in triplicate at 37 °C for 1 h. 100 μL of PBS buffer and 100 uL of Triton X-100 0.1% (w/v) were mixed with SRBC as negative and positive controls, respectively. All samples were centrifuged at 3000 rpm for 5 min, 100 μL supernatant was collected and transferred to a new 96-well plate, and its absorbance was measured at 540 nm. The calculation formula of hemolysis rate is as follows. (5) % Hemolysis=absorbancesample-absorbancenegative/absorbancepositive-absorbancenegative×100

[8] = Hemolytic peptides dataset HD2, label 1 = hemolytic, 0 = non-hemolytic, ref Hemolytik/SATPdb
[9] = hemolytic peptides dataset HD3, 1 = hemolytic (positive set), 0 = non-hemolytic (negative set), labels taken from databases, ref Hemolytik/SATPdb
[10] = ACPs dataset D4 (sheet "D4"), label 1 = ACP, 0 = non-ACP, ref CancerPPD / SATPdb
[11] = ACPs dataset D5, sheet "D5", label 1 = ACP, 0 = non-ACP, ref CancerPPD [45] and SATPdb

CC(C)C[C@H](NC(=O)CN)C(=O)N[C@@H](Cc1ccccc1)C(=O)N[C@@H](CC(=O)O)C(=O)N[C@H](C(=O)N[C@H](C(=O)N[C@@H](CCCCN)C(=O)NCC(=O)N[C@H](C(=O)N[C@@H](CC(C)C)C(=O)N[C@@H](CCCCN)C(=O)NCC(=O)N[C@@H](C)C(=O)NCC(=O)N[C@@H](CCCCN)C(=O)N[C@@H](CC(N)=O)C(=O)N[C@H](C(=O)N[C@@H](C)C(=O)NCC(=O)N[C@@H](CO)C(=O)N[C@@H](CC(C)C)C(=O)N[C@@H](CC(C)C)C(=O)N[C@@H](CCC(=O)O)C(=O)N[C@@H](CCC(N)=O)C(=O)N[C@@H](CC(C)C)C(=O)N[C@@H](CCCCN)C(=O)N[C@H]1CSSC[C@@H](C(=O)O)NC(=O)CNC(=O)CNC(=O)[C@H](CO)NC(=O)[C@H](CC(C)C)NC(=O)[C@H](CCCCN)NC1=O)C(C)C)C(C)C)C(C)C)C(C)C [Brevinin-2DYb] (H-GLFDVVKGVLKGAGKNVAGSLLEQLKCKLSGGC-OH; disulfide 27-33; N-terminus and C-terminus assumed)
IC50 [1]: 35.1 µM
IC50 [2]: 24 µM
selective killing effect on lung cancer A549 cells relative to 293T cells (in words) [2]: selective killing effect
killing effects on lung cancer cell A549 (in words) [2]: effective killing effects
IC50 [3]: 23.3 µM
IC50 [4]: 37.8 µM
IC50 [5]: 50.7 µM
toxicity to 293T cells (in words) [5]: low toxicity

CC[C@H](C)[C@H](NC(=O)CN)C(=O)N[C@@H](Cc1ccccc1)C(=O)N[C@@H](CC(=O)O)C(=O)N[C@H](C(=O)N[C@H](C(=O)N[C@@H](CCCCN)C(=O)NCC(=O)N[C@H](C(=O)N[C@@H](CC(C)C)C(=O)N[C@@H](CCCCN)C(=O)NCC(=O)N[C@H](C(=O)NCC(=O)N[C@@H](CCCCN)C(=O)N[C@@H](CC(N)=O)C(=O)N[C@H](C(=O)N[C@@H](C)C(=O)NCC(=O)N[C@@H](CO)C(=O)N[C@@H](CC(C)C)C(=O)N[C@@H](CC(C)C)C(=O)N[C@@H](CCC(=O)O)C(=O)N[C@@H](CCC(N)=O)C(=O)N[C@@H](CC(C)C)C(=O)N[C@@H](CCCCN)C(=O)N[C@H]1CSSC[C@@H](C(=O)O)NC(=O)CNC(=O)CNC(=O)[C@H](CO)NC(=O)[C@H](CC(C)C)NC(=O)[C@H](CCCCN)NC1=O)C(C)C)C(C)C)C(C)C)C(C)C)C(C)C [Brevinin-2DYd] (H-GIFDVVKGVLKGVGKNVAGSLLEQLKCKLSGGC-OH; disulfide 27-33; N-terminus and C-terminus assumed)
IC50 [1]: 8.05 µM
IC50 [2]: 2.98 µM
killing effects on lung cancer cell A549 (in words) [2]: effective killing effects
IC50 [3]: 19.7 µM
IC50 [4]: 25.7 µM
IC50 [5]: 5.83 µM
toxicity to 293T cells (in words) [5]: highest toxicity

CC[C@H](C)[C@@H]1NC(=O)[C@H](CCCCN)NC(=O)[C@@H](NC(=O)[C@H](CCCCN)NC(=O)[C@H](CC(C)C)NC(=O)CNC(=O)[C@H](CCC(=O)O)NC(=O)[C@H](CC(C)C)NC(=O)[C@H](CCCCN)NC(=O)CNC(=O)[C@H](C)NC(=O)[C@@H](NC(=O)[C@H](CC(=O)O)NC(=O)[C@H](CCCCN)NC(=O)[C@H](C)NC(=O)[C@H](C)NC(=O)CNC(=O)[C@H](CCCCN)NC(=O)[C@H](CC(C)C)NC(=O)[C@@H](NC(=O)[C@H](CC(=O)O)NC(=O)[C@H](CC(C)C)NC(=O)[C@H](Cc2ccccc2)NC(=O)[C@H](CC(C)C)NC(=O)CN)[C@@H](C)O)C(C)C)CSSC[C@@H](C(=O)N[C@@H](CCCCN)C(=O)N[C@@H](CC(C)C)C(=O)N2CCC[C@H]2C(=O)O)NC(=O)CNC(=O)[C@H]([C@@H](C)O)NC1=O [RANATUERIN2] (H-GLFLDTLKGAAKDVAGKLEGLKCKITGCKLP-OH; disulfide 23-28; N-terminus and C-terminus assumed)
IC50 [2]: > 128 µM
IC50 [3]: > 128 µM
IC50 [4]: > 128 µM
IC50 [5]: > 128 µM
toxicity to 293T cells (in words) [5]: low toxicity

CC[C@H](C)[C@H](NC(=O)CN)C(=O)N[C@@H](CC(C)C)C(=O)N[C@@H](CO)C(=O)N[C@@H](CO)C(=O)N[C@H](C(=O)N[C@@H](CCCCN)C(=O)NCC(=O)N[C@H](C(=O)N[C@@H](C)C(=O)N[C@@H](CCCCN)C(=O)NCC(=O)N[C@H](C(=O)N[C@@H](C)C(=O)N[C@@H](CCCCN)C(=O)N[C@@H](CC(N)=O)C(=O)N[C@H](C(=O)N[C@@H](C)C(=O)N[C@@H](C)C(=O)N[C@@H](CCC(N)=O)C(=O)N[C@@H](CC(C)C)C(=O)N[C@@H](CC(C)C)C(=O)N[C@@H](CC(=O)O)C(=O)N[C@H](C(=O)N[C@@H](CC(C)C)C(=O)N[C@@H](CCCCN)C(=O)N[C@H]1CSSC[C@@H](C(=O)O)NC(=O)CNC(=O)[C@H]([C@@H](C)O)NC(=O)[C@H]([C@@H](C)CC)NC(=O)[C@H](CCCCN)NC1=O)[C@@H](C)O)C(C)C)C(C)C)C(C)C)[C@@H](C)CC [RANATUERIN-2Lb] (H-GILSSIKGVAKGVAKNVAAQLLDTLKCKITGC-OH; disulfide 27-32; N-terminus and C-terminus assumed)
IC50 [1]: 59.8 µM
IC50 [2]: 15.3 µM
selective killing effect on lung cancer A549 cells relative to 293T cells (in words) [2]: selective killing effect
killing effects on lung cancer cell A549 (in words) [2]: effective killing effects
IC50 [3]: 37.2 µM
IC50 [4]: 45.2 µM
IC50 [5]: 63.2 µM
toxicity to 293T cells (in words) [5]: low toxicity

FFGWLIRGAIHAGKAIHGLIHRRRH [satpdb10145]
Activity (erythrocytes): 1
Activity (cancer cell lines; ACPs dataset D1, 1 = ACP (positive), 0 = non-ACP (negative), label taken from databases, ref CancerPPD [45] and SATPdb): 0
Activity (cancer cell lines; ACPs dataset D4 (sheet "D4"), label 1 = ACP (CancerPPD ID), 0 = non-ACP (non-anticancer AMP, SATPdb ID), ref CancerPPD [45] and SATPdb): 0
Activity [6]: 1

FVGAIAAALPHVISAIKNAL [satpdb12079]
Activity (erythrocytes; [8]): 1
Activity (erythrocytes; [9]): 1
Activity (cancer cell lines; ACPs dataset D3 (sheet "D3"), label 1 = ACP, 0 = non-ACP, ref CancerPPD/SATPdb): 0
Activity (cancer cell lines; [10]): 0
Activity (cancer cell lines; [11]): 0
Activity [6]: 1

GLLGPLLKIAAKVGSNLL [satpdb10126]
Activity (erythrocytes): 1
Activity [6]: 1

IDWKKLLDAAKQIL [satpdb24876]
Activity (erythrocytes; [8]): 0
Activity (erythrocytes; [9]): 0
Activity [6]: 1

Triton X-100 [reference compound]
Hemolytic effect on 2% sheep erythrocytes, Positive Control (Triton X-100 (0.1%)) [7]: + (The “+” symbol indicates that the hemolysis rate exceeds 10% when peptides concentration reaches 100 μM)

WRSLGRTLLRLSHALKPLARRSGW [satpdb10596]
Activity (cancer cell lines; ACPs dataset D3 (supplement sheet "D3"), 1 = ACP, 0 = non-ACP, ref CancerPPD [45] and SATPdb): 0
Activity (cancer cell lines; [10]): 0
Activity (cancer cell lines; [11]): 0
Activity [6]: 0
